Results from ChEMBL document CHEMBL3612022, “Regioselectively controlled synthesis of 3(5)-(trifluoromethyl)pyrazolylbenzenesulfonamides and their effects on a pathological pain model in mice” (Eur J Med Chem, 2015).
Calls of active or inactive are those of the source.

What was measured:
[1] = tested on: Mus musculus; experiment: Antihyperalgesic effect in Swiss mouse assessed as inhibition of CFA-induced paw withdrawal threshold at 300 mg/kg, po after 2 hrs; format: functional
[2] = tested on: Mus musculus; experiment: Locomotor activity in Swiss mouse assessed as motor impairment at 300 mg/kg, po by open-field test; format: toxicity, organism-based; settings: in vivo
[3] = tested on: Mus musculus; experiment: Antiedematogenic effect in Swiss mouse assessed as inhibition of CFA-induced paw edema at 300 mg/kg, po after 2 hrs; format: functional
[4] = tested on: Mus musculus; experiment: Locomotor activity in Swiss mouse assessed as motor impairment at 300 mg/kg, po by rotarod test; format: toxicity, organism-based; settings: in vivo
[5] = tested on: Mus musculus; experiment: Antihyperalgesic effect in po dosed Swiss mouse assessed as inhibition of CFA-induced paw withdrawal threshold after 2 hrs; format: functional
[6] = tested on: Mus musculus; experiment: Antiedematogenic effect in Swiss mouse assessed as inhibition of CFA-induced paw edema at 300 mg/kg, po after 1 to 6 hrs; format: functional, organism-based
[7] = tested on: Mus musculus; experiment: Antihyperalgesic effect in Swiss mouse assessed as inhibition of CFA-induced paw withdrawal threshold at 300 mg/kg, po after 0.5 to 6 hrs; format: functional, organism-based

SMILES	inhibition in vivo at 300 mg/kg [1] [%]	Activity [2]	inhibition in vivo at 300 mg/kg [3] [%]	Activity [4]	inhibition [1]	IC [5] [mg/kg]	inhibition [6]	inhibition [7]
NS(=O)(=O)c1ccc(N2N=C(c3ccccc3)CC2(O)C(F)(F)F)cc1 (stereo not drawn)	52	Non-toxic	44	Non-toxic				
NS(=O)(=O)c1ccc(N2N=C(c3ccco3)CC2(O)C(F)(F)F)cc1 (stereo not drawn)		Non-toxic	48	Non-toxic	inactive			
Cc1ccc(C2=NN(c3ccc(S(N)(=O)=O)cc3)C(O)(C(F)(F)F)C2)cc1 (stereo not drawn)	64	Non-toxic	45	Non-toxic		539.3	Active	Active
NS(=O)(=O)c1ccc(N2N=C(c3ccc(F)cc3)CC2(O)C(F)(F)F)cc1 (stereo not drawn)	62	Non-toxic		Non-toxic				
NS(=O)(=O)c1ccc(N2N=C(c3ccc(Cl)cc3)CC2(O)C(F)(F)F)cc1 (stereo not drawn)	57	Non-toxic		Non-toxic				
COc1ccc(C2=NN(c3ccc(S(N)(=O)=O)cc3)C(O)(C(F)(F)F)C2)cc1 (stereo not drawn)		Non-toxic	46	Non-toxic	inactive			
Cc1ccc(-c2cc(C(F)(F)F)nn2-c2ccc(S(N)(=O)=O)cc2)cc1 [CELECOXIB]	77		53			652.1		Active
NS(=O)(=O)c1ccc(N2N=C(c3ccc(Br)cc3)CC2(O)C(F)(F)F)cc1 (stereo not drawn)	57	Non-toxic	46	Non-toxic				
